Tests used:
Assay in all cases: competitive isoTOP-ABPP
Type in all cases: binding
[1] = target: T1, TPD52L2 Tumor protein D54 (Homo sapiens, UniProt O43399)
T1 construct: isoTOP-ABPP experiments performed in cell lysates (in vitro); endogenous in cells; host or cells: MDA-MB-231 soluble lysate
Method: (§1) In vitro covalent fragment treatment for isoTOP-ABPP. All compounds were made up as solutions in DMSO (100×) and were used at a final concentration of 50 μM for activated esters and 100 μM for guanidinylating agents. For each profiling sample, 0.5 ml of lysate was treated with 5 μl of the 100× compound stock solution or 5 μl of DMSO. Samples were treated with activated esters for
(§2) STP-alkyne labeling and click chemistry. For concentration-dependent reactivity measurements by isoTOP-ABPP, 0.5 ml proteome aliquots were treated at ambient temperature with 1 mM STP-alkyne 1 (5 μl of 100 mM stock in DMSO) and 0.1 mM STP alkyne 1 (5 μl of 10 mM stock in DMSO), respectively. For competitive isoTOP-ABPP, after in vitro fragment treatment (detailed above), the samples were labeled for 1 h at ambient temperature with 0.1 mM STP-alkyne 1 (5 μl of 10 mM stock in DMSO). Samples were conjugated by copper-mediated azide-alkyne cycloaddition (CuAAC) to either the light (1 mM STP-alkyne or fragment treated) or heavy (0.1 mM STP-alkyne or DMSO treated) TEV tags (10 μl of 5 mM stocks in DMSO, final concentration=100 μM) using tris(2-carboxyethyl)phosphine hydrochloride
(§3) R value calculation and processing. The ratios of light and heavy MS1 peaks for each unique peptide were quantified with a CIMAGE software using default parameters (3 MS1 acquisitions per peak and signal to noise threshold set to 2.5). For reactivity measurements by isoTOP-ABPP, the R value was calculated from the ratio of MS1 peak areas, comparing the 1 mM STP alkyne sample (light TEV tag) with the 0.1 mM STP alkyne sample (heavy TEV tag). For competitive isoTOP-ABPP, the R value was calculated from the ratio of MS1 peak areas, comparing the DMSO treated sample (heavy TEV tag) with the compound treated sample (light TEV tag). […] Ratios for unique peptide entries are calculated for each experiment; overlapping peptides with the same modified lysine (for example, different charge states, MudPIT chromatographic steps or tryptic termini) are grouped together and the median ratio is reported as the final ratio (R). The peptide ratios reported by CIMAGE were further filtered to ensure the removal or correction of low-quality ratios in each individual data set. The quality filters applied were the following: removal of half tryptic peptides; for ratios with high standard deviations from the median (90% of the median or above) the lowest ratio was taken instead of the median; removal of peptides with R=20 and only a single MS2 event triggered during the elution of the parent ion; manual annotation of all the peptides with ratios of 20, removing any peptides with low quality elution profiles that remained after the previous curation steps (only done for competitive isoTOP-ABPP).
(§4) Cross-data processing for fragment screening. For compound treated samples, biological replicates of the same condition were averaged, if the standard deviation was below 60% of the mean; otherwise, for lysines with at least one R value <4 for a particular compound, the lowest value of the ratio set was taken. For lysines, where all R values for a particular compound were ≥4, the average was reported. For peptides containing several possible modified lysines, the lysine with the highest number of quantification events was used for analysis and the remaining, redundant peptides were reported as alternative modification sites. Peptides included in the aggregate dataset (those used for further bioinformatics and statistical analyses) were required to have been quantified in 2 experiments for competitive isoTOP-ABPP. Lysines were categorized as liganded, if they had at least one ratio R≥4 (hit fragments). For liganded lysines with R=20 for all liganding events, lysines were required to have been quantified with R=20 in two separate experiments and were further required to have been quantified with R<20 in one additional experiment.

[2] = target: T2, AGFG1 Arf-GAP domain and FG repeat-containing protein 1 (Homo sapiens, UniProt P52594)
T2 construct: isoTOP-ABPP experiments performed in cell lysates (in vitro); endogenous in cells; host or cells: soluble proteome of human cancer cell lines (MDA-MB-231, Ramos, Jurkat)
T2 sequence (P52594 1-562): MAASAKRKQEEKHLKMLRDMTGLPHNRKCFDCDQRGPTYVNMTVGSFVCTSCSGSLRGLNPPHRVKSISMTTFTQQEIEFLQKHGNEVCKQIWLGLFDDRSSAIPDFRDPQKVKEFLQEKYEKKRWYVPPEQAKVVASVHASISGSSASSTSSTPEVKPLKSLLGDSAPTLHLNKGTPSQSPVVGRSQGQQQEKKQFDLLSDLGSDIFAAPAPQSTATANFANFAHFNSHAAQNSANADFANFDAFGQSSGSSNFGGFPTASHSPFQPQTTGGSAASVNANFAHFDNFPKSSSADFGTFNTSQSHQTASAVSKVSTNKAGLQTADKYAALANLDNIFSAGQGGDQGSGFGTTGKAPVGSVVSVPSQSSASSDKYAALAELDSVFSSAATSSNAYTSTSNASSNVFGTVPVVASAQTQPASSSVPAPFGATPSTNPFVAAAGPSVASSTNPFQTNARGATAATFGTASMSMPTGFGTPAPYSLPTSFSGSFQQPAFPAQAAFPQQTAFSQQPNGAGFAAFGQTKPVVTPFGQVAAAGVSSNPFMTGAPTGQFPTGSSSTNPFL
Method: as §1, §2, §3, §4

ADK Adenosine kinase = target: T3, ADK Adenosine kinase (Homo sapiens, UniProt P55263)
T3 construct: isoTOP-ABPP experiments performed in cell lysates (in vitro); endogenous in cells; host or cells: soluble proteome of human cancer cell lines (MDA-MB-231, Ramos, Jurkat)
Method: as §1, §2, §3, §4

[3] = target: T4, ECH1 Delta(3,5)-Delta(2,4)-dienoyl-CoA isomerase, mitochondrial (Homo sapiens, UniProt Q13011)
T4 construct: isoTOP-ABPP experiments performed in cell lysates (in vitro); endogenous in cells; host or cells: soluble proteome of human cancer cell lines (MDA-MB-231, Ramos, Jurkat)
T4 sequence (Q13011 34-328): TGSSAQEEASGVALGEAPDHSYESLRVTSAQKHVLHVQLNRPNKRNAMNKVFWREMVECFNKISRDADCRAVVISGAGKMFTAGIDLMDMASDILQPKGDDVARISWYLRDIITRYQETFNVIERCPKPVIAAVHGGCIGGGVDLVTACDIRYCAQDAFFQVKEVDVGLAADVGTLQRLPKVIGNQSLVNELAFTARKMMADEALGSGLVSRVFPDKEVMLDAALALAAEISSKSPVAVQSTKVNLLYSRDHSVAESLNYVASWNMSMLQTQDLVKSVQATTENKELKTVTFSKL
Method: as §1, §2, §3, §4

T3 sequence (P55263 whole entry): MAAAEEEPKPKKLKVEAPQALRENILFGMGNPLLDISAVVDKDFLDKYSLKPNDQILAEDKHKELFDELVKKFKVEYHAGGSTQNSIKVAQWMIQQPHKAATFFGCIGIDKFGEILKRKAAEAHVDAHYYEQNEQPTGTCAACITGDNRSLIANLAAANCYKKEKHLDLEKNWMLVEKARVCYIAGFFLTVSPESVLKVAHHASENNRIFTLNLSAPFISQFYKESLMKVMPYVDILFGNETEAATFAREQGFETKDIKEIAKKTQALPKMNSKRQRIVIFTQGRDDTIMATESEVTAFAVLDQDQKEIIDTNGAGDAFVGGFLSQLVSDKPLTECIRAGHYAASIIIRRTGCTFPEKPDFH
T1 sequence (O43399 whole entry): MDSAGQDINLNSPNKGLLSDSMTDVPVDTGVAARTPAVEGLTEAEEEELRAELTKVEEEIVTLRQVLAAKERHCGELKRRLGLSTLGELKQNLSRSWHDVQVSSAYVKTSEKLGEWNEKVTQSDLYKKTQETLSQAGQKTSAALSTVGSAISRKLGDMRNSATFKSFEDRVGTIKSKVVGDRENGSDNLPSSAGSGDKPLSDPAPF

Row | Compound | isoTOP-ABPP ratio, lysine O43399_K90 ([1]; 50 uM_231_sol_in vitro) | isoTOP-ABPP ratio, lysine P52594_K134 ([2]; 50 uM_231_sol_in vitro) | isoTOP-ABPP ratio, lysine P55263_K88 (ADK Adenosine kinase; 50 uM_231_sol_in vitro) | isoTOP-ABPP ratio, lysine Q13011_K112 ([3]; 50 uM_231_sol_in vitro) | isoTOP-ABPP ratio, lysine O43399_K90 ([1]; 100 uM_231_sol_in vitro) | isoTOP-ABPP ratio, lysine P52594_K134 ([2]; 100 uM_231_sol_in vitro) | isoTOP-ABPP ratio, lysine P55263_K88 (ADK Adenosine kinase; 100 uM_231_sol_in vitro) | isoTOP-ABPP ratio, lysine Q13011_K112 ([3]; 100 uM_231_sol_in vitro)
1 | N#Cc1ccc(C(=O)Oc2ccc([N+](=O)[O-])cc2[N+](=O)[O-])cc1 [fragment 44, 2,4-Dinitrophenyl 4-cyanobenzoate] | 1.1 | 1.5 | 0.5 | 0.9 | – | – | – | –
2 | O=C(CCc1ccc2c(c1)OCO2)Oc1ccc([N+](=O)[O-])cc1[N+](=O)[O-] [fragment 45, 2,4-Dinitrophenyl 3-(benzo[d][1,3]dioxol-5-yl)propanoate] | 1.5 | 20.0 | 1.3 | 1.0 | – | – | – | –
3 | O=C(ON1C(=O)CCC1=O)c1cc(C(F)(F)F)cc(C(F)(F)F)c1 [fragment 46, 3,5-Bis(trifluoromethyl)benzoic acid NHS ester] | 1.4 | 1.0 | 0.8 | 0.8 | – | – | – | –
4 | O=C(Oc1c(F)c(F)cc(F)c1F)c1cc(C(F)(F)F)cc(C(F)(F)F)c1 [fragment 48, 2,3,5,6-Tetrafluorophenyl 3,5-bis(trifluoromethyl)benzoate] | 1.8 | 1.0 | 0.9 | 1.5 | – | – | – | –
5 | COC(=O)NC(=NC(=O)OCC1c2ccccc2-c2ccccc21)n1cccn1 [fragment 49, N-Methoxycarbonyl-N′-9-fluorenylmethoxycarbonyl-pyrazole-1-carboxamidine] | – | – | – | – | 2.9 | 0.8 | 1.2 | 1.1
6 | CC(C)(C)OC(=O)N=C(NC(=O)OC(C)(C)C)n1cccn1 [fragment 50, reference compound] | – | – | – | – | 2.2 | 1.0 | 1.0 | 1.3
7 | NC(=O)c1cc(C(F)(F)F)cc(C(F)(F)F)c1 [fragment 51, reference compound] | 1.0 | 0.9 | 0.8 | 1.0 | – | – | – | –

Source: patent publication US20210255193A1, “LYSINE REACTIVE PROBES AND USES THEREOF” (The Scripps Research Institute, priority 2017, published 2021)
